Experimental data: ChEMBL document CHEMBL3243968, “Effects of molecular modification on hypocholesteremic activity of 1,3-bis(substituted phenoxy)-2-propanones and related derivatives” (J Med Chem, 1978)

Columns and labels:
Rattus norvegicus [1] = test: Estrogenic activity in Sprague-Dawley rat at 10 mg/kg/day, po; assay type: ADME, organism-based; set-up: route oral; details: in vivo
Rattus norvegicus [2] = test: Toxicity in Sprague-Dawley rat at 10 mg/kg/day, po; assay type: organism-based; set-up: route oral; details: in vivo
Rattus norvegicus [3] = test: Toxicity in Sprague-Dawley rat at 10 mg/kg/day, po administered for 16 days; assay type: organism-based; set-up: route oral; details: in vivo, 384 h
Rattus norvegicus [4] = test: Toxicity in Sprague-Dawley rat at 10 mg/kg/day, po administered for 10 days; assay type: organism-based; set-up: route oral; details: in vivo, 240 h
Rattus norvegicus [5] = test: Toxicity in Sprague-Dawley rat at 10 mg/kg/day, po administered for 4 days; assay type: organism-based; set-up: route oral; details: in vivo, 96 h
[6] = 1-Octanol-water partition coefficient, log P of the compound by UV spectrophotometer; assay type: physicochemical

Row | Structure (SMILES) | Activity (Rattus norvegicus [1]) | Activity (Rattus norvegicus [2]) | further results
1 | Cc1ccc(OC(C)C(=O)C(C)Oc2ccc(C)cc2)cc1 (stereo unspecified) | Non-toxic | Non-toxic | 
2 | CCCCCOCC(=O)COCCCCC | Non-toxic | Non-toxic | 
3 | CCCCCCCCCCCCC(OC(C)=O)S(C)(=O)=O (stereo unspecified) | Non-toxic | Non-toxic | 
4 | O=C(COc1ccc(-c2ccccc2)cc1)COc1ccc(-c2ccccc2)cc1 | Non-toxic | Non-toxic | 
5 | O=C(CCl)COc1ccc([N+](=O)[O-])cc1 | Non-toxic |  | Activity (Rattus norvegicus [3]): Toxic; Activity (Rattus norvegicus [4]): Toxic; Activity (Rattus norvegicus [5]): Toxic
6 | CC(=O)COc1ccc(C)cc1 | Non-toxic | Non-toxic | 
7 | O=C(COc1ccccc1)COc1ccccc1 |  |  | logP [6]: < 2.69
8 | Cc1ccc(OCC(=O)CO)cc1 | Non-toxic | Non-toxic | 
9 | O=C(COc1ccc2c(c1)CCC2)COc1ccc2c(c1)CCC2 | Non-toxic | Non-toxic | 
10 | O=C(COc1ccc(Cl)c2ccccc12)COc1ccc(Cl)c2ccccc12 | Non-toxic | Non-toxic | 
11 | CCCCCCCCCCCCCCCCCCOCC(=O)COc1ccc(C)cc1 | Non-toxic | Non-toxic | 
12 | CCOC(=O)CC(=O)COc1ccc(C)cc1 | Non-toxic | Non-toxic | 
13 | Cc1ccc(OCC2CO2)cc1 (stereo unspecified) | Non-toxic | Non-toxic | logP [6]: 2.69
14 | O=C(COc1ccc([N+](=O)[O-])cc1)COc1ccc([N+](=O)[O-])cc1 | Non-toxic | Non-toxic | 
15 | CCCCCCCCCCCCCCC(=O)COc1ccc(C)cc1 | Non-toxic | Non-toxic | 
16 | Cc1ccccc1OCC(=O)COC(=O)c1ccc(Cl)cc1 | Non-toxic | Non-toxic | 
17 | COc1cccc(OCC(=O)COc2cccc(OC)c2)c1 | Non-toxic | Non-toxic | 
18 | O=C(CCl)COc1cccc2ccccc12 | Non-toxic | Non-toxic | 
19 | COc1ccccc1OCC(=O)COc1ccccc1OC |  |  | logP [6]: < 2.69
20 | CCOC(COc1cc(C)c(C)cc1Cl)(COc1cc(C)c(C)cc1Cl)OCC | Non-toxic | Non-toxic | logP [6]: 2.69
21 | CC(=O)COc1ccc([N+](=O)[O-])cc1 | Non-toxic | Non-toxic | 
22 | CCOC(=O)C(C)(C)Oc1ccc(Cl)cc1 [CLOFIBRATE] | Non-toxic | Non-toxic | 
